Results from a melting point compilation (Tetko et al.; mined from patent text by program, amines drawn as free bases though some values may be those of a salt).

Structure (SMILES)	melting point [°C]
COc1cncc(-c2ccc(OC3SCC(OC(C)=O)C(OC(C)=O)C3OC(C)=O)cn2)c1 (centres undefined)	155
O=C1OCC(CNC2CCCCC2)C1(c1ccccc1)c1ccccc1 (centres undefined)	129 to 131
COc1cnc(C#N)c(C)c1	80 to 81
CC(C)OC(=O)c1cc(NC(=S)OC(C)C)ccc1Cl	89
O=C(O)c1ncn2c1[C@@H]1CCCN1C(=O)c1cc(Cl)ccc1-2	227
CC(O)(CCBr)C1CCCCC1 (centres undefined)	31 to 33
CCCCCCCCCCCCCCCCC(NC(C)=O)(C(=O)OCC)C(=O)OCC	65 to 67
COc1cc(C)nc(NC(=O)NS(=O)(=O)c2ccccc2CCSC#N)n1	161 to 165
COC(=O)c1cc([N+](=O)[O-])cc([N+](=O)[O-])c1SCc1ccccc1	113 to 114
CN(C)C(=O)c1nc(-c2ccccc2)nc2[nH]c3ccccc3c12	218 to 219
CCSC(=O)n1c(=NC(=O)N(C)C)sc2ccccc21	138
CCN(CC)CC(=C1NCCCS1)[N+](=O)[O-]	68 to 69
Cc1cccc2nc3c(=O)[nH][nH]c(=O)c3c(O)c12	167 to 168
N#CSCC(Cl)=C(Cl)CBr	64.5 to 66.5
CCOC(=O)C(=NO)C(=O)c1ccc(Br)cc1	149
Cc1cc(C)cc(C(=O)c2c(C(C)C)c(=O)[nH]c(=O)n2CC2CCCC2)c1	167 to 168
O=[N+]([O-])c1c[nH]c(-c2c(Cl)cc(C(F)(F)F)cc2Cl)n1	254 to 255
CC(C)N1CC=C(c2c[nH]c3ccccc23)CC1	178
CCCCNC(=O)NS(=O)(=O)c1cccc(C(=O)OC)c1I	163 to 167
CCS(=O)CC(O)(C(=O)Nc1ccc(C#N)c(C(F)(F)F)c1)C(F)(F)F (centres undefined)	141 to 143
CCn1cc(C(=O)O)c(=O)c2cc(F)c(-c3ccnc(N)n3)cc21	245 to 247

Structure (SMILES)	melting point [°C]
CC(C)(C)C(=O)Oc1cc(-c2oc3ccccc3c(=O)c2C(=O)N2CCN(c3ccccn3)CC2)cc(OC(=O)C(C)(C)C)c1OC(=O)C(C)(C)C	120 to 125
O=C1CC(C(F)(F)F)CC(=O)O1	88 to 91
CCOC(=O)C(=CC=C(SC)C(=O)c1ccc(Br)cc1)N(C)C	107
ClC1=NC2CCCc3c(Cl)ccc(c32)N1 (centres undefined)	190 to 192
CC1(C)CC(N2C(=O)C=CC2=O)CC(C)(C)N1	104 to 111
CNc1cc(SC2CCN(C)CC2)ccc1[N+](=O)[O-]	90
Cc1nc2ncnn2c2c1CCN2c1c(Cl)cccc1Cl	192 to 194
CC1(C)COS(=O)Oc2ccc(C#N)cc21 (centres undefined)	87 to 88
COc1cc(OC)nc(NC(=O)NS(=O)(=O)c2cc(N)ccc2C(=O)N(C)C)n1	192 to 193
CCC=CCC=CCC=CCCCCCCCC(=O)OCC(COC(=O)CCCCCCCC=CCC=CCC=CCC)OCn1cnc2c(=O)[nH]c(N)nc21 (centres undefined)	242 to 243
Cc1ccccc1C1CC(=O)c2c(C)c[nH]c2C1 (centres undefined)	190 to 191
C#CCN1CCN(c2c(Cl)cc3c(=O)c(C(=O)O)cn4c3c2CCC4C)CC1 (centres undefined)	211 to 213
CCCCCCN1CCC(n2nc(-c3c(-c4ccccc4)nn4ccccc34)ccc2=O)CC1	106
Cc1ccsc1-c1nc2cc([N+](=O)[O-])ccc2o1	174 to 176
c1ccc(Oc2ccc(N3CCNCC3)nn2)cc1	96 to 97
N#CC=Cc1ccc(Cl)c(Cl)c1	98.2
CNC(=O)c1ccnc(NC(=O)N2CCC3(CC2)Cc2ccccc2C3)c1	229 to 231
CN(C)C=C(C#N)C=NN(C)C	130 to 134
CCNc1nc(C)c(-c2ccnc(Nc3ccc(N4CCNCC4)cc3)n2)s1	245 to 247
CCc1cc2ccccc2c(CNC(=O)c2cc(OC)c(OC)c(OC)c2)n1	175 to 176
Cc1cnc(-c2cc3c(O)cccc3s2)o1	188 to 189

The remaining lines, values ahead:

melting point [°C]	Structure (SMILES)
157 to 158	CC(C)COc1ccc2c(n1)CC(c1ccccc1)CC2=O (centres undefined)
160 to 163	CCOC(=O)c1ccc(NC(=O)c2cc(C)no2)cc1
188 to 190	CCOC(=O)c1ncn(C(c2ccccc2)(c2ccccc2)c2ccccc2)c1C
191	COc1ccc(Cc2c[nH]c(=O)c3ccccc23)cn1
60 to 62	Fc1ccccc1COC1COC(CCl)OC1 (centres undefined)
106 to 107	Cc1ccc(-c2n[nH]c3ccccc23)cc1
124 to 125	CN(O)C(=O)C=Cc1cccc(Oc2ccccc2)c1
165 to 167	CC(C)C(NS(=O)(=O)c1ccc(-c2ccc([N+](=O)[O-])cc2)cc1)C(=O)O (centres undefined)
123 to 124	COc1cc(CCl)ccc1OCc1coc(-c2ccco2)n1
43 to 43.7	FCCOc1ccc(COCc2ccc(Cl)cc2)cc1
161	COc1cc2[nH]c(C(=O)OCc3ccccc3)cc2c(C)c1C
209 to 211	O=C(NNS(=O)(=O)c1ccccc1)c1ccc2[nH]ccc2c1
159 to 161	Oc1ccc2c(c1)COc1c-2cc2ccc(O)cc2c1-c1ccsc1
138	CCc1nccn1CCc1ccc(Nc2ncc(C#N)c(-c3ccc(C(C)(C)N)cc3)n2)cc1
265 to 267	CN1CC(C(=O)c2c[nH]cc2Cc2ccc(F)cc2)=C(O)C1=O
160	O=C(Nc1cccnc1Cl)c1ccccc1[N+](=O)[O-]

melting point [°C]	Structure (SMILES)
161 to 162	COC(=O)c1ccccc1COc1ccc(-c2cc(O)c(SCCc3ccccc3)c(=O)o2)cc1
93 to 94	CC(C)(C)OC(=O)CC(NC(=O)CCNC(=O)Cc1ccc(C#N)cc1)C(=O)NC(Cc1ccccc1)C(=O)OC(C)(C)C (centres undefined)
215 to 216	COc1ccc(-c2c(Cl)c(CN3C(=O)CCC3=O)nc3sc4c(F)c(OC)ccc4c23)cc1
202 to 203	Cn1c(=O)n(CCC[C@@H](NS(=O)(=O)c2ccc(-c3ccccc3)cc2)C(=O)NO)c(=O)c2ccccc21
139	COc1ccc(CC(C)NC(C)=O)cc1OCc1ccccc1 (centres undefined)
211	O=c1oc2c(-c3ccccc3)cccc2c(O)c1-c1ccccc1
122 to 123	COc1ccc(Cn2c(=O)c3ccc([N+](=O)[O-])cc3n(CCCCBr)c2=O)cc1
98 to 100	Cc1ccc(OCc2ccccc2)c(C(=O)O)c1
160	CCCc1ccccc1Sc1c(C)n(CC(=O)O)c2ccc(NS(C)(=O)=O)cc12
192 to 194	O=C(Nc1ccc2cc(CN3CCCC3)cnc2c1)c1ccc(-c2ccccc2)cc1
178 to 179	Oc1c(-c2ccc(F)cc2)nn2ccccc12
217 to 218	Cc1ccc(Cl)cc1NC(=S)Nc1ccn(C)n1
92 to 95	COc1ccc2cc([C@H](C)C(=O)OCC(=O)COC(=O)Cc3ccc(CO[N+](=O)[O-])cc3)ccc2c1
124	CC(C)(C)C(=O)C(Cc1ccc(Cl)cc1)n1cncn1 (centres undefined)
84 to 86.5	CC(=O)Oc1ccc(-c2cnc(N(S(=O)(=O)Cc3ccccc3)S(=O)(=O)Cc3ccccc3)c(Cc3ccccc3)n2)cc1
206	N#Cc1c(N)nc2ccc(N3CCN(Cc4ccccc4)CC3)cc2c1Cl
